Test system: 565232-114-T-J1-PDC complex spheroid viability
Assay: Anticancer human tumor 565232-114-T-J1-PDC patient-derived bladder carcinoma cell line growth inhibition [CLK]
Settings: for IC50: curve of first compound; for viability, T/C: stronger effect = lower value
From the text: A high-throughput screen of multi-cell type tumor spheroids was designed to identify active combinations of […] and targeted small molecules. Complex spheroids include a stromal component modeled by human endothelial cells (HUVEC) and fibroblasts modeled by human mesenchymal stem cells (MSCs). The concentration ranges selected for each drug and investigational agent were based upon clinically achievable concentrations if the clinical Cmax of the agent was known.
Compounds. The drugs and investigational agents: cirtuvivint (SM08502; NSC835563), CC-671 (NSC850746), vemurafenib (NSC761431), tapotoclax (NSC804041), sotorasib (NSC818433), adagrasib (NSC831453), MRTX-1133 (NSC836407), BAY2416964 (NSC825713), copanlisib (NSC816437), inavolisib (NSC800729), abemaciclib (NSC768073), osimertinib (NSC779217), entinostat (NSC756642), eltanexor (KPT-8602, NSC794443), venetoclax (NSC766270), ceralasertib (NSC777638), bortezomib (NSC756655), olaparib (NSC753686), talazoparib (NSC767125), alisertib (NSC759677), peposertib (NSC802822), gemcitabine (NSC613327), 5-fluorouracil (NSC19893), SN-38 (NSC673596), oxaliplatin (NSC266046), paclitaxel (NSC125973), and doxorubicin (NSC123127), were obtained from the National Cancer Institute (NCI) Developmental Therapeutics Program Chemical Repository. The FDA-approved anticancer drug set is available from the Developmental Therapeutics Program at https://dtp.cancer.gov/organization/dscb/obtaining/available plates.htm. […] The stock solutions were prepared in dimethyl sulfoxide (DMSO, Sigma-Aldrich, St. Louis, MO, cat. D2650), except for the platinum complexes which were prepared in saline (Quality Biological, Gaithersburg, MD, cat. 114-055-101), at 800-fold the tested concentration and stored at -70 degrees C prior to their use. All drugs and investigational agents were tested over a range starting from a high concentration at or near the clinical Cmax and decreasing in half-log increments. If the clinical Cmax for an agent had not been determined, the highest concentration tested was 10 microM.
Cell Culture. All cells were maintained in an incubator at 37 degrees C and 5% CO2 with 95% humidity. The PDC lines were cultured according to standard operating procedures established by the NCI PDMR. Briefly, all PDCs were thawed and cultured in Matrigel-coated flasks prepared with a working solution of 1X Ham's F-12 nutrient mix, without supplementation (Invitrogen, Waltham, MA, cat. 11765054), 100 U/mL penicillin-streptomycin (Invitrogen, cat. 15140122), and 2.5% Matrigel (Corning Inc., Corning, NY, cat. 354248) for the first three passages. The 947758-054-R-J2-PDC line was cultured in 6B/Colon 1A media, which includes advanced DMEM/F-12 (Thermo Fisher Scientific, cat. 12634028), 10 mM HEPES (Thermo Fisher Scientific, cat. 15630080), 1X GlutaMAX supplement (Thermo Fisher Scientific, cat. 35050061), 0.1 mg/mL primocin (InvivoGen, cat. ant-pm-2), 10% defined fetal bovine serum, heat inactivated (HyClone Laboratories Inc., cat. SH30070.03HI), 1.25 mM N-Acetyl-L-cysteine (Sigma-Aldrich, cat. A9165), 10 mM nicotinamide (Sigma-Aldrich, cat. N0636), 1X B-27 supplement (Thermo Fisher Scientific, cat. 17504044), 1X N-2 supplement (Thermo Fisher Scientific, cat. 17502048), and 10 microM Y-27632 dihydrochloride (Tocris Bioscience, cat. 1254). The 876862-298-R-J1-PDC was cultured in 6E media, which includes all 6B/Colon 1A media components plus 50% L-WRN conditioned media (ATCC, cat. CRL-3276), 50 ng/mL recombinant human EGF recombinant protein (hEGF; Thermo Fisher Scientific, cat. PHG0311), 10 ng/mL recombinant human fibroblast growth factor 10 (hGFG-10; PeproTech, cat. 100-26), 1 ng/mL recombinant human fibroblast growth factor 2 (hFGF-2; PeproTech, cat. 100-18B), and 1 µM prostaglandin E2 (PGE2; Tocris, cat. 2296). The 227483-062-R1-J1-PDC line was cultured in Panc media, containing all 6E components except hFGF-2, with the addition of 500 nM SB-431542 (Selleckchem, cat. S1067) and 10 nM gastrin (Tocris, cat. 3006). […]
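Note: spheroids exposed to compounds for 7 days before readout.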
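Throughout, for viability, T/C: 100% = DMSO vehicle wells with luminescence normalized to vehicle control.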

In the case of `CCN1CCN(Cc2ccc(Nc3ncc(F)c(-c4cc(F)c5nc(C)n(C(C)C)c5c4)n3)nc2)CC1` + CN1CCN(c2cc(C(=O)Nc3cc4cc(-c5cnn(C)c5)ccc4cn3)ccn2)CC1, the IC50 (second compound 0.0316 µM) is reported as greater than 1000 nM, the IC50 (second compound 0.1 µM) is reported as greater than 1000 nM and the IC50 (second compound 0.316 µM) is reported as less than 3.16 nM. It also gave an IC50 (second compound 1 µM) of less than 3.16 nM, an IC50 (second compound 3.16 µM) of less than 3.16 nM and an IC50 (second compound 10 µM) of less than 3.16 nM. The viability, T/C (second compound 0.0316 µM, first compound 0.00316 µM) was 116%, the viability, T/C (second compound 0.0316 µM, first compound 0.01 µM) was 82.1% and the viability, T/C (second compound 0.0316 µM, first compound 0.0316 µM) was 98.7%. It also gave a viability, T/C (second compound 0.0316 µM, first compound 0.1 µM) of 92.8%, a viability, T/C (second compound 0.0316 µM, first compound 0.316 µM) of 113% and a viability, T/C (second compound 0.0316 µM, first compound 1 µM) of 123%. It also gave a viability, T/C (second compound 0.1 µM, first compound 0.00316 µM) of 88.1%, a viability, T/C (second compound 0.1 µM, first compound 0.01 µM) of 90.2% and a viability, T/C (second compound 0.1 µM, first compound 0.0316 µM) of 89%. It also gave a viability, T/C (second compound 0.1 µM, first compound 0.1 µM) of 103%, a viability, T/C (second compound 0.1 µM, first compound 0.316 µM) of 116% and a viability, T/C (second compound 0.1 µM, first compound 1 µM) of 113%. The viability, T/C (second compound 0.316 µM, first compound 0.00316 µM) was 15.5%, the viability, T/C (second compound 0.316 µM, first compound 0.01 µM) was 24.7% and the viability, T/C (second compound 0.316 µM, first compound 0.0316 µM) was 23.2%. It also gave a viability, T/C (second compound 0.316 µM, first compound 0.1 µM) of 29.1%, a viability, T/C (second compound 0.316 µM, first compound 0.316 µM) of 42.4% and a viability, T/C (second compound 0.316 µM, first compound 1 µM) of 61.1%. For the same compound, the viability, T/C (second compound 1 µM, first compound 0.00316 µM) was 0.26%, the viability, T/C (second compound 1 µM, first compound 0.01 µM) was 0.27% and the viability, T/C (second compound 1 µM, first compound 0.0316 µM) was 0.3%. For the same compound, the viability, T/C (second compound 1 µM, first compound 0.1 µM) was 0.29%, the viability, T/C (second compound 1 µM, first compound 0.316 µM) was 1.31% and the viability, T/C (second compound 1 µM, first compound 1 µM) was 2.37%. It also gave a viability, T/C (second compound 3.16 µM, first compound 0.00316 µM) of 0.2%, a viability, T/C (second compound 3.16 µM, first compound 0.01 µM) of 0.22% and a viability, T/C (second compound 3.16 µM, first compound 0.0316 µM) of 0.96%. The viability, T/C (second compound 3.16 µM, first compound 0.1 µM) was 0.16%, the viability, T/C (second compound 3.16 µM, first compound 0.316 µM) was 0.25% and the viability, T/C (second compound 3.16 µM, first compound 1 µM) was 0.35%. For the same compound, the viability, T/C (second compound 10 µM, first compound 0.00316 µM) was 0.18%, the viability, T/C (second compound 10 µM, first compound 0.01 µM) was 0.2% and the viability, T/C (second compound 10 µM, first compound 0.0316 µM) was 0.5%. For the same compound, the viability, T/C (second compound 10 µM, first compound 0.1 µM) was 0.16%, the viability, T/C (second compound 10 µM, first compound 0.316 µM) was 0.21% and the viability, T/C (second compound 10 µM, first compound 1 µM) was 1.34%.

Reference: PubChem BioAssay AID2060612 (Molecular Pharmacology Branch, DTP, NCI, 2025)
